# Patent US20240252488A1 (KOREA RESEARCH INSTITUTE OF CHEMICAL TECHNOLOGY, priority 2020, published 2024)
# Tests used:
# [1] = test system: FADD−/− Jurkat cells; assay: Necroptosis inhibition assay, TNF-α-induced necroptosis (CellTiter-Glo 2.0); type: cell-based, human; conditions: TNF-α 15 ng/mL; for Necroptosis inhibition assay (Rescue %) 1 μM: compound 1 μM; for Necroptosis inhibition assay (Rescue %) 10 μM: compound 10 μM
# Procedure: Necroptosis Inhibition Assay
# Necroptosis inhibition was evaluated by the following method.
# 80 μL of FADD gene-defective human T lymphocyte cells (FADD−/− Jurkat cells) were equally distributed into each well at 5.0×10^5 cells/mL in a white 96-well plate with a transparent bottom. 20 μL of the medium containing test compound was treated in each well so that the final concentration of the compound was 0.1, 1, and 10 μM, and reacted at room temperature for 30 minutes. After the 30-minute reaction was over, TNF (tumor necrosis factor)-α was treated in the corresponding well so that the final concentration of TNF-α was 15 ng/mL in order to induce necroptosis. It was cultured in a 5% CO2, 37° C. incubator for 20 to 24 hours.
# After incubation, the 96-well plate was left at room temperature for 30 minutes. After 30 minutes, Promega's CellTiter-Glo 2.0 reagent was diluted 1:3 with PBS and 100 μL of the diluted solution was added to each well to confirm cell viability by measuring the amount of ATP. After the treatment, the plate was shielded from light and incubated at room temperature for 2 minutes with orbital shaking, and then left at room temperature for 10 minutes without shaking. After measuring the luminescence at 0.5 seconds per well using a plate scanner, the cytotoxicity and necroptosis inhibition rate for the compound were calculated using the measured values.
# [2] = target: T1, MLKL (Homo sapiens, UniProt Q8NB16); assay: Measurement of binding affinity with MLKL receptor (competitive binding assay, Kd); design: made in house; host or cells: HEK 293 cell line (T7 phage in E. coli BL21-derived host is also described)
# T1 sequence (Q8NB16 1-471): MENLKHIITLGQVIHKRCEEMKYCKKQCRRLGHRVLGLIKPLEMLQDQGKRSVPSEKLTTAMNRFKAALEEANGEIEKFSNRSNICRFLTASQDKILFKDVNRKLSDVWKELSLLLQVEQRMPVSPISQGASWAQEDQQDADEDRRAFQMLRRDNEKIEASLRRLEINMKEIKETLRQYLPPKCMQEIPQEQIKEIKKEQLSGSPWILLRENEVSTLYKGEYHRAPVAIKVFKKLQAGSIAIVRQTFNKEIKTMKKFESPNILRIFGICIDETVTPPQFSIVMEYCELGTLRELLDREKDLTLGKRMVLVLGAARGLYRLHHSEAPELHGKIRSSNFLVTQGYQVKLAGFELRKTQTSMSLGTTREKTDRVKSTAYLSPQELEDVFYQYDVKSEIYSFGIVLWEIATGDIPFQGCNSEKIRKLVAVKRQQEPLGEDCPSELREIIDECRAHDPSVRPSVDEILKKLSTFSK
# Procedure: Measurement of Binding Affinity with MLKL Receptor (Competitive Binding Assay)
# The binding affinity was evaluated by measuring the Kd value in the following method.
# To prepare kinase-tagged T7 phage strains in an E. coli host derived from the BL21 strain, E. coli were grown to log-phase and infected with T7 phage and incubated with shaking at 32° C. until lysis. The lysates were centrifuged and filtered to remove cell debris. For kinase production, it was expressed in human embryonic kidney cell line (HEK 293 cell line), and subsequently tagged with DNA for qPCR detection.
# The liganded beads were blocked with excess biotin and washed with blocking buffer (SeaBlock (Pierce), 1% BSA, 0.05% Tween 20, 1 mM DTT) to remove unbound ligand and to reduce non-specific binding. […] Test compounds were prepared as 111× stocks in 100% DMSO.
# The compounds were then diluted directly into the assays such that the final concentration of DMSO was 0.9%. All reactions performed in polypropylene 384-well plate. Each was a final volume of 0.02 ml. […] The kinase concentration in the eluates was measured by qPCR.
Kd [2] [nM],SMILES,Necroptosis inhibition assay (Rescue %) 1 μM [1] [%],Necroptosis inhibition assay (Rescue %) 10 μM [1] [%]
46,"Nc1ncc(-c2cnn(C3CCN(CCOCCOCCNC(=O)CNc4ccc5c(c4)C(=O)N(C4CCC(=O)NC4=O)C5=O)CC3)c2)nc1C(=O)N[C@@H](C(=O)Nc1ccc(F)cc1)c1ccccc1 (stereo partly drawn) [TDH-218, 3-amino-6-(1-(1-(2-(2-(2-(2-((2-(2,6-dioxopiperidin-3-yl)-1,3-dioxoisoindolin-5-yl)amino)acetamido)ethoxy)ethoxy)ethyl)piperidin-4-yl)-1H-pyrazol-4-yl)-N-((R)-2-((4-fluorophenyl)amino)-2-oxo-1-phenylethyl)pyrazine-2-carboxamide]",27.92,40.68
43,"Nc1ncc(-c2cnn(C3CCN(CCOCCOCCNc4ccc5c(c4)C(=O)N(C4CCC(=O)NC4=O)C5=O)CC3)c2)nc1C(=O)N[C@@H](C(=O)Nc1ccc(F)cc1)c1ccccc1 (stereo partly drawn) [TDH-216, 3-amino-6-(1-(1-(2-(2-(2-((2-(2,6-dioxopiperidin-3-yl)-1,3-dioxoisoindolin-5-yl)amino)ethoxy)ethoxy)ethyl)piperidin-4-yl)-1H-pyrazol-4-yl)-N-((R)-2-((4-fluorophenyl)amino)-2-oxo-1-phenylethyl)pyrazine-2-carboxamide]",21.7,38.63
300,"Nc1ncc(-c2cnn(C3CCN(CC4CCN(C(=O)C5CCN(c6ccc7c(c6)C(=O)N(C6CCC(=O)NC6=O)C7=O)CC5)CC4)CC3)c2)nc1C(=O)N[C@@H](C(=O)Nc1ccc(F)cc1)c1ccccc1 (stereo partly drawn) [TDH-210, 3-amino-6-(1-(1-((1-(1-(2-(2,6-dioxopiperidin-3-yl)-1,3-dioxoisoindolin-5-yl)piperidine-4-carbonyl)piperidin-4-yl)methyl)piperidin-4-yl)-1H-pyrazol-4-yl)-N-((R)-2-((4-fluorophenyl)amino)-2-oxo-1-phenylethyl)pyrazine-2-carboxamide]",7.5,10.08
260,"Nc1ncc(-c2ccc(N3CCN(CC4CCN(C(=O)CNc5cccc6c5C(=O)N(C5CCC(=O)NC5=O)C6=O)CC4)CC3)nc2)nc1C(=O)OC(C(=O)Nc1ccc(F)cc1)c1ccccc1 (stereo not drawn) [TDH-232, 2-((4-fluorophenyl)amino)-2-oxo-1-phenylethyl 3-amino-6-(6-(4-((1-((2-(2,6-dioxopiperidin-3-yl)-1,3-dioxoisoindolin-4-yl)glycyl)piperidin-4-yl)methyl)piperazin-1-yl)pyridin-3-yl)pyrazine-2-carboxylate]",3.46,

# Further lines, the molecule ahead of its results:
SMILES,Kd [2] [nM],Necroptosis inhibition assay (Rescue %) 1 μM [1] [%],Necroptosis inhibition assay (Rescue %) 10 μM [1] [%]
"Nc1ncc(C2=CCN(C(=O)COCCOCCNC(=O)CNc3ccc4c(c3)C(=O)N(C3CCC(=O)NC3=O)C4=O)CC2)cc1C(=O)O[C@@H](C(=O)Nc1ccc(F)cc1)c1ccccc1 (stereo partly drawn) [TDH-085, (R)-2-((4-fluorophenyl)amino)-2-oxo-1-phenylethyl 6-amino-1′-(2-(2-(2-(2-((2-(2,6-dioxopiperidin-3-yl)-1,3-dioxoisoindolin-5-yl)amino)acetamido)ethoxy)ethoxy)acetyl)-1′,2′,3′,6′-tetrahydro-[3,4′-bipyridine]-5-carboxylate]",12,5.02,
"Nc1ncc(C2=CCN(C(=O)COCCOCCNC(=O)C3CN(c4cccc5c4C(=O)N(C4CCC(=O)NC4=O)C5=O)C3)CC2)cc1C(=O)O[C@@H](C(=O)Nc1ccc(F)cc1)c1ccccc1 (stereo partly drawn) [TDH-086, (R)-2-((4-fluorophenyl)amino)-2-oxo-1-phenylethyl 6-amino-1′-(2-(2-(2-(1-(2-(2,6-dioxopiperidin-3-yl)-1,3-dioxoisoindolin-4-yl)azetidine-3-carboxamido)ethoxy)ethoxy)acetyl)-1′,2′, 3′,6′-tetrahydro-[3,4′-bipyridine]-5-carboxylate]",41,2.91,
"Nc1ncc(-c2cnn(C3CCN(CCCCCCNc4ccc5c(c4)C(=O)N(C4CCC(=O)NC4=O)C5=O)CC3)c2)nc1C(=O)O[C@@H](C(=O)Nc1ccc(F)cc1)c1ccccc1 (stereo partly drawn) [TDH-120, (R)-2-((4-fluorophenyl)amino)-2-oxo-1-phenylethyl 3-amino-6-(1-(1-(6-((2-(2,6-dioxopiperidin-3-yl)-1,3-dioxoisoindolin-5-yl)amino)hexyl)piperidin-4-yl)-1H-pyrazol-4-yl)pyrazine-2-carboxylate]",1.7,10.65,
"Nc1ncc(C2=CCN(C(=O)CCCCCNC(=O)C3CCN(c4ccc5c(c4)C(=O)N(C4CCC(=O)NC4=O)C5=O)CC3)CC2)cc1C(=O)O[C@@H](C(=O)Nc1ccc(F)cc1)c1ccccc1 (stereo partly drawn) [TDH-074, (R)-2-((4-fluorophenyl)amino)-2-oxo-1-phenylethyl 6-amino-1′-(6-(1-(2-(2,6-dioxopiperidin-3-yl)-1,3-dioxoisoindolin-5-yl)piperidine-4-carboxamido)hexanoyl)-1′,2′,3′,6′-tetrahydro-[3,4′-bipyridine]-5-carboxylate]",74,14.54,3.61
"Nc1ncc(-c2cnn(C3CCN(CCOCCOCCNc4ccc5c(c4)C(=O)N(C4CCC(=O)NC4=O)C5=O)CC3)c2)nc1C(=O)O[C@@H](C(=O)Nc1ccc(F)cc1)c1ccccc1 (stereo partly drawn) [TDH-122, (R)-2-((4-fluorophenyl)amino)-2-oxo-1-phenylethyl 3-amino-6-(1-(1-(2-(2-(2-((2-(2,6-dioxopiperidin-3-yl)-1,3-dioxoisoindolin-5-yl)amino)ethoxy)ethoxy)ethyl)piperidin-4-yl)-1H-pyrazol-4-yl)pyrazine-2-carboxylate]",1.8,20.17,
"Nc1ncc(-c2cnn(C3CCN(CCCCCCCCCCNC(=O)COc4cccc5c4C(=O)N(C4CCC(=O)NC4=O)C5=O)CC3)c2)nc1C(=O)O[C@@H](C(=O)Nc1ccc(F)cc1)c1ccccc1 (stereo partly drawn) [TDH-163, (R)-2-((4-fluorophenyl)amino)-2-oxo-1-phenylethyl 3-amino-6-(1-(1-(10-(2-((2-(2,6-dioxopiperidin-3-yl)-1,3-dioxoisoindolin-4-yl)oxy)acetamido)decyl)piperidin-4-yl)-1H-pyrazol-4-yl)pyrazine-2-carboxylate]",45,30.03,28.56
"Cl.Nc1ncc(-c2cnn(C3CCNCC3)c2)cc1C(=O)O[C@@H](C(=O)Nc1ccc(F)cc1)c1ccccc1 [TDH-112, (R)-2-((4-fluorophenyl)amino)-2-oxo-1-phenylethyl 2-amino-5-(1-(piperidin-4-yl)-1H-pyrazol-4-yl)nicotinate hydrochloride]",2,20.24,
"Nc1ncc(-c2cnn(C3CCN(CCCCCCCCCCNC(=O)CNc4cccc5c4C(=O)N(C4CCC(=O)NC4=O)C5=O)CC3)c2)nc1C(=O)O[C@@H](C(=O)Nc1ccc(F)cc1)c1ccccc1 (stereo partly drawn) [TDH-161, (R)-2-((4-fluorophenyl)amino)-2-oxo-1-phenylethyl 3-amino-6-(1-(1-(10-(2-((2-(2,6-dioxopiperidin-3-yl)-1,3-dioxoisoindolin-4-yl)amino)acetamido)decyl)piperidin-4-yl)-1H-pyrazol-4-yl)pyrazine-2-carboxylate]",29,25.81,35.81
